Active and inactive are the calls of the source. No cut-off for these calls is given here.
How the values were obtained:
Mus musculus [1] = test: Immuno-adjuvant activity in SV-immunized C57BL/6 mouse assessed as increase in HA-specific IgG1 titer level at 100 ug, sc administered immediately and on day 0, 14 and measured at day 21 by ELISA; type: functional, organism-based; conditions: dose 100.0 µg, time 21.0 day
RAW264.7 [2] = test: Induction of apoptosis in mouse RAW264.7 cells assessed as apoptotic cells at 16 uM by flow cytometry analysis (reference value: 3.26 %); type: functional
BMDC [3] = test: Cytotoxicity against mouse BMDC cells at 80 uM incubated for 24 hrs by Celltiter-Glo luminescence assay; type: toxicity, cell-based
BMDC [4] = test: Induction of immune response in TLR7 knockout mouse BMDC cells assessed as increase in IL-6 production at 10 to 100 uM incubated for 24 hrs by ELISA method; type: functional, cell-based; conditions: dose 10-100 µM
RAW264.7 [5] = test: Induction of apoptosis in mouse RAW264.7 cells assessed as apoptotic cells at 8 uM by flow cytometry analysis (reference value: 3.26 %); type: functional
[6] = Toxicity in C57BL/6 mouse assessed as effect on urea level in serum at 500 ug measured after 1 day after immunization; conditions: 24 h, dose 500 µg
Mus musculus [7] = species on record: Mus musculus; test: Induction of immune response in OVAp immunized C57BL/6 mouse assessed as increase in number of antigen-specific IFN-gamma+ CD44+ CD8+ T cells in spleen at 100 ug measured after 35 days by flow cytometry analysis; type: functional, organism-based; conditions: T-cell, dose 100.0 µg, time 35.0 day
[8] = Toxicity in C57BL/6 mouse assessed as effect on creatinine level in serum at 500 ug measured after 1 day after immunization; conditions: 24 h, dose 500 µg
Mus musculus [9] = species on record: Mus musculus; test: Induction of immune response in OVAp immunized C57BL/6 mouse assessed as fold increase in IFN-gamma+ cytotoxic T lymphocytes at 100 ug measured after 35 days by flow cytometry analysis; type: functional, T-cell; conditions: dose 100 µg; time 35 day
[10] = Toxicity in C57BL/6 mouse assessed as effect on glucose level in serum at 500 ug measured after 1 day after immunization; conditions: 24 h, dose 500 µg
[11] = Upregulation of CD40 expression in mouse RAW264.7 cells assessed as fold increase in fluorescence intensity at 20 uM measured after 24 hrs by flow cytometry analysis; type: functional
RAW264.7 [12] = test: Induction of apoptosis in mouse RAW264.7 cells assessed as necrotic cells at 10 uM by flow cytometry analysis (reference value: 20.6 %); type: functional
[13] = Toxicity in BALB/c mouse assessed as effect on body weight loss at 1000 ug measured after 16 hrs in presence of hemagglutinin; conditions: in vivo, dose 1000 µg
RAW264.7 [14] = test: Induction of apoptosis in mouse RAW264.7 cells assessed as live cells at 8 uM by flow cytometry analysis (reference value: 75.4 %); type: functional
[15] = Toxicity in BALB/c mouse assessed as reduction in leukocyte count measured after 16 hrs; conditions: dose 100-1000 µg
RAW264.7 [16] = test: Induction of apoptosis in mouse RAW264.7 cells assessed as live cells at 12 uM by flow cytometry analysis (reference value: 75.4 %); type: functional
[17] = Toxicity in C57BL/6 mouse assessed as effect on lung at 500 ug, sc by H and E staining based analysis; type: organism-based; conditions: in vivo, dose 500 µg
BMDC [18] = test: Upregulation of CD86 expression in mouse BMDC cells at 5 to 50 uM measured after 24 hrs in presence of OVAp by flow cytometry analysis; type: functional, cell-based; conditions: dose 5-50 µM
B16-OVA melanoma cell = test: Antitumor activity against mouse B16-OVA melanoma cell xenografted in C57BL/6 mouse assessed as increase in CD8+T cell level in spleen at 500 ug measured after 24 hrs in presence of OVAp by flow cytometry analysis; type: functional, cell-based; conditions: dose 500.0 µg

SMILES: C[C@H](CCC(=O)NCCCCCCCNC(=O)CC[C@@H](C)[C@H]1CC[C@H]2[C@@H]3CC[C@@H]4C[C@H](O)CC[C@]4(C)[C@H]3C[C@H](O)[C@]12C)[C@H]1CC[C@H]2[C@@H]3CC[C@@H]4C[C@H](O)CC[C@]4(C)[C@H]3C[C@H](O)[C@]12C
- Activity (Mus musculus [1]): Active
- Activity (RAW264.7 [2]): 0.63%
- Activity (BMDC [3]): Non-Toxic
- Activity (BMDC [4]): inactive
- Activity (RAW264.7 [5]): 1.47%
- Activity [6]: Non-Toxic
- Activity (Mus musculus [7]): Active
- Activity [8]: Non-Toxic
- fold change (FC) (Mus musculus [9]): 7.6
- Activity [10]: Non-Toxic
- fold change (FC) [11]: 1.3
- Activity (RAW264.7 [12]): 28.6%
- Activity [13]: Non-Toxic
- Activity (RAW264.7 [14]): 60.7%
- Activity [15]: Non-Toxic
- Activity (RAW264.7 [16]): 66.8%
- Activity [17]: Non-Toxic
- Activity (BMDC [18]): Active
- Activity (B16-OVA melanoma cell): Active
